biological target: T1, Vascular endothelial growth factor receptor 2 (Homo sapiens, UniProt P35968); experiment: Inhibition of KDR assessed as phosphorylation level of substrate at 10 uM by ELISA
T1 sequence (P35968 whole entry): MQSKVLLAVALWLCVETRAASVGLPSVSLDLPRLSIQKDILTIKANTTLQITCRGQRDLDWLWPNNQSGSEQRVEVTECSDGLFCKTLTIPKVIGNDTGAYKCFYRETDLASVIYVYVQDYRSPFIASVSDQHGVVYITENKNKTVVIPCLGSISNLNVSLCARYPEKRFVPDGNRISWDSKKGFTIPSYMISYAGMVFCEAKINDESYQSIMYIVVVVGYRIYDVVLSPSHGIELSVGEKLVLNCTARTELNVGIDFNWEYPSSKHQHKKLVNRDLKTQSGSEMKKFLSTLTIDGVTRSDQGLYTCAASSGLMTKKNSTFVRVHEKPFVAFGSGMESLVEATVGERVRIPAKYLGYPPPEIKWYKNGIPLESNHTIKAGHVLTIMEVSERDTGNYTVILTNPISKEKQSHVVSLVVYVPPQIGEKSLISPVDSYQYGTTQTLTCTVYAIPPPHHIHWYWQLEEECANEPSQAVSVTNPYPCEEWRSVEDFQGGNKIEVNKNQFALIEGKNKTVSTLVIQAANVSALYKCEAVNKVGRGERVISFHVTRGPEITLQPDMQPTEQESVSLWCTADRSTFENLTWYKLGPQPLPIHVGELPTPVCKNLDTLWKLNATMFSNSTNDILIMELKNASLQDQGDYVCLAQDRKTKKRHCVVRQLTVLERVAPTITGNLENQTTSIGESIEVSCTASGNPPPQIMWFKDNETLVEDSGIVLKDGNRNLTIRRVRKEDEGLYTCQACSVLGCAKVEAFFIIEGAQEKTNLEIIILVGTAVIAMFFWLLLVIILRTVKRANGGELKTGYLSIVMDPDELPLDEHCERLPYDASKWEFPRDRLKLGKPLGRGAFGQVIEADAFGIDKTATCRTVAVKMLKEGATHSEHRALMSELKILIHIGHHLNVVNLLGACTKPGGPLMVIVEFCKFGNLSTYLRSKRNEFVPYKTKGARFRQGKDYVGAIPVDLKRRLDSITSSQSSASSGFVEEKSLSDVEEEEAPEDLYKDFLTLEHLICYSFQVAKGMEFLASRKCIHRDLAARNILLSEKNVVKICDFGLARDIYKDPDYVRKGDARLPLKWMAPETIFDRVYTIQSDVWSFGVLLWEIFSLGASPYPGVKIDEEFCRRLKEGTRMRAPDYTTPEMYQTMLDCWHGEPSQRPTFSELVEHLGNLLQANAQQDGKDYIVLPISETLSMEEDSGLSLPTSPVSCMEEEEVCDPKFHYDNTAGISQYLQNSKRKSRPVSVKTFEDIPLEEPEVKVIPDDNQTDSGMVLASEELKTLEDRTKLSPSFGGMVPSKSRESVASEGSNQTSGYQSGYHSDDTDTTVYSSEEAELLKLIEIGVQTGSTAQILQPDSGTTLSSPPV

First: CC(C)(C)c1ccc(NC(=O)c2c[nH]c3cccc(OCc4ccncc4)c23)cc1
Second: O=C(Nc1ccc(Cl)cc1)c1c[nH]c2cccc(OCc3ccncc3)c12
The inhibition of the first is lower: 6% for the first, 9% for the second.

First: O=C(Nc1ccc2c(c1)CCC2)c1c[nH]c2cccc(OCc3ccncc3)c12
Second: O=C(Nc1ccc2c(c1)CCC2)c1c[nH]c2cccc(SCc3ccncc3)c12
The inhibition of the first is lower: 19% for the first, 59% for the second.

Compared with `O=C(Nc1ccc(OC(F)(F)F)cc1)c1c[nH]c2cccc(NCc3ccncc3)c12`, `O=C(Nc1ccc(OC(F)(F)F)cc1)c1c[nH]c2cccc(SCc3ccncc3)c12` is higher in inhibition: 14% for the first, 35% for the second.

Going from `Cc1cc(C)cc(NC(=O)c2c[nH]c3cccc(NCc4ccncc4)c23)c1` to `Cc1cc(C)cc(NC(=O)c2c[nH]c3cccc(SCc4ccncc4)c23)c1`, the inhibition rises from 19% to 35%.

`Cc1cccc(NC(=O)c2c[nH]c3cccc(NCc4ccncc4)c23)c1` and `O=C(Nc1cccc(Cl)c1)c1c[nH]c2cccc(NCc3ccncc3)c12` are the same in inhibition: 18% for the first, 18% for the second.

Going from `O=C(Nc1cccc(C(F)(F)F)c1)c1c[nH]c2cccc(OCc3ccncc3)c12` to `O=C(Nc1cccc(C(F)(F)F)c1)c1c[nH]c2cccc(NCc3ccncc3)c12`, the inhibition rises from 4% to 25%.

Compared with `O=C(Nc1cc2ccccc2cn1)c1c[nH]c2cccc(NCc3ccncc3)c12`, `O=C(Nc1cc2ccccc2cn1)c1c[nH]c2cccc(SCc3ccncc3)c12` is higher in inhibition: 55% for the first, 74% for the second.

First: O=C(Nc1ccc(Cl)cc1)c1c[nH]c2cccc(NCc3ccncc3)c12
Second: CC(C)(C)c1ccc(NC(=O)c2c[nH]c3cccc(NCc4ccncc4)c23)cc1
The inhibition of the first is lower: 23% for the first, 25% for the second.

Going from `CC(C)(C)c1ccc(NC(=O)c2c[nH]c3cccc(SCc4ccncc4)c23)cc1` to `O=C(Nc1ccc(Cl)cc1)c1c[nH]c2cccc(SCc3ccncc3)c12`, the inhibition falls from 51% to 34%.

First: O=C(Nc1cccc(Cl)c1)c1c[nH]c2cccc(SCc3ccncc3)c12
Second: Cc1cccc(NC(=O)c2c[nH]c3cccc(SCc4ccncc4)c23)c1
The inhibition of the first is lower: 35% for the first, 52% for the second.

Compared with `O=C(Nc1ccc2c(c1)CCC2)c1c[nH]c2cccc(NCc3ccncc3)c12`, `O=C(Nc1cccc(C(F)(F)F)c1)c1c[nH]c2cccc(SCc3ccncc3)c12` is higher in inhibition: 27% for the first, 92% for the second.

biological target: T1, Vascular endothelial growth factor receptor 2; experiment: Inhibition of KDR assessed as phosphorylation level of substrate by ELISA

For `O=C(Nc1cccc(C(F)(F)F)c1)c1c[nH]c2cccc(SCc3ccncc3)c12`, the IC50 was 309 nM.

Reference: ChEMBL document CHEMBL1681739, “KDR inhibitor with the intramolecular non-bonded interaction: conformation-activity relationships of novel indole-3-carboxamide derivatives” (Bioorg Med Chem Lett, 2011)
